# Results as given in BindingDB's records for doi:10.1021/jm981078h (Leiden University, 1999).
# Target: Asialoglycoprotein receptor 1 (Rattus norvegicus) (UniProt P02706)
# Assay: Affinity tested by in vitro competition assay of [125I]ASOR binding to parenchymal rat liver cells
# Sequence of Asialoglycoprotein receptor 1 (Rattus norvegicus) (P02706 whole entry, looked up): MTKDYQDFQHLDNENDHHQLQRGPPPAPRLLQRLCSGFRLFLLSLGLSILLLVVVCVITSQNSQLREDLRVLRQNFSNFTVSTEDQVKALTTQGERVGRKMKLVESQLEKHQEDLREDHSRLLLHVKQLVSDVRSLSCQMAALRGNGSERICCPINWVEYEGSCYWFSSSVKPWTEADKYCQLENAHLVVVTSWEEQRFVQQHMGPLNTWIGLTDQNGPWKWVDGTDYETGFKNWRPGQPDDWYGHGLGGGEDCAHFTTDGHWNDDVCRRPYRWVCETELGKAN
row,Ki [nM],SMILES
1,93,O=C(CCCCO[C@@H]1O[C@@H](CO)[C@H](O)[C@H](O)[C@@H]1O)NCC(=O)NCCCC(=O)OCC(COC(=O)CCCNC(=O)CNC(=O)CCCCO[C@@H]1O[C@@H](CO)[C@H](O)[C@H](O)[C@@H]1O)(COC(=O)CCCNC(=O)CNC(=O)CCCCO[C@@H]1O[C@@H](CO)[C@H](O)[C@H](O)[C@@H]1O)NC(=O)CNC(=O)OCc1ccccc1 [Galactoside analogue]
2,93,O=C(CCCCO[C@@H]1O[C@@H](CO)[C@H](O)[C@H](O)[C@@H]1O)NCCCNC(=O)CCOCC(COCCC(=O)NCCCNC(=O)CCCCO[C@@H]1O[C@@H](CO)[C@H](O)[C@H](O)[C@@H]1O)(COCCC(=O)NCCCNC(=O)CCCCO[C@@H]1O[C@@H](CO)[C@H](O)[C@H](O)[C@@H]1O)NC(=O)CNC(=O)OCc1ccccc1 [Galactoside analogue]

row,SMILES,Ki [nM]
1,CC(C)CCCC(C)[C@H]1CC[C@H]2[C@@H]3CC=C4C[C@@H](OC(=O)CNC(=O)CCCCC(=O)NCC(=O)NC(COCOCCOCCOCCOCCO[C@@H]5O[C@@H](CO)[C@H](O)[C@H](O)[C@@H]5O)(COCOCCOCCOCCOCCO[C@@H]5O[C@@H](CO)[C@H](O)[C@H](O)[C@@H]5O)COCOCCOCCOCCOCCO[C@@H]5O[C@@H](CO)[C@H](O)[C@H](O)[C@@H]5O)CC[C@]4(C)[C@H]3CC[C@]12C (stereo partly drawn) [TG(20)C-Galactoside analogue],200
